According to patent US7964624B1, “Inhibitors of serine proteases” (priority 2005, dated 2011):

Target: T1, HCV NS3 protease domain (Hepatitis C virus genotype 1b, UniProt Q9WMX2)
T1 construct: The first 181 amino acids of NS3 (residues 1027-1207 of the viral polyprotein); hexa-histidine (C); made in house; host or cells: E. coli BL21/DE3 pLysS
Experiment: biochemical
Details: Enzyme Assay 1 (HCV NS3 Protease Domain Peptide Cleavage Assay) activity, apparent Ki class

T1 sequence (Q9WMX2 1027-1207, other chains not shown): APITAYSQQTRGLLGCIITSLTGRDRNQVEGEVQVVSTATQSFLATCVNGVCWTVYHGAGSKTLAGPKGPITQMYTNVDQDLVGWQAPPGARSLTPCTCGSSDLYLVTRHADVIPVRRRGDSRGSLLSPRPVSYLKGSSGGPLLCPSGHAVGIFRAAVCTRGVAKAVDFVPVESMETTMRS

Compound	Ki
CCC[C@H](NC(=O)[C@@H]1C[C@]2(CC(c3cccc(Cl)c3)=NO2)CN1C(=O)[C@@H](NC(=O)Cc1ccc(C)c(F)c1)C(C)(C)C)C(=O)C(=O)NC1CC1 [Compound 102]	100 to 500 nM
CCC[C@H](NC(=O)[C@@H]1C[C@]2(CC(c3cccc(Cl)c3)=NO2)CN1C(=O)[C@@H](NC(=O)NCC)C1CCCCC1)C(=O)C(=O)NC1CC1 [Compound 103]	100 to 500 nM
CCC[C@H](NC(=O)[C@@H]1C[C@]2(CC(c3cc(F)cc(F)c3)=NO2)CN1C(=O)[C@@H](NC(=O)O[C@H]1CCOC1)C(C)(C)C)C(=O)C(=O)NC1CC1 [Compound 106]	> 500 nM
CCC[C@H](NC(=O)[C@@H]1C[C@]2(CC(c3ccccc3)=NO2)CN1C(=O)[C@@H](NC(=O)NCc1ccccc1)C(C)(C)C)C(=O)C(=O)NC1CC1 [Compound 107]	100 to 500 nM
CCC[C@H](NC(=O)[C@@H]1C[C@]2(CC(c3cccc(Cl)c3)=NO2)CN1C(=O)[C@@H](NC(=O)[C@H]1CC[C@@H](OC)CC1)C(C)(C)C)C(=O)C(=O)NC1CC1 [Compound 108]	100 to 500 nM
CCC[C@H](NC(=O)[C@@H]1C[C@]2(CC(c3ccc(Cl)c(C)c3)=NO2)CN1C(=O)[C@@H](NC(=O)O[C@H]1CCOC1)C(C)(C)C)C(=O)C(=O)NC1CC1 [Compound 109]	< 100 nM
CCC[C@H](NC(=O)[C@@H]1C[C@]2(CC(c3cc(Cl)c(OC)cc3OC)=NO2)CN1C(=O)[C@@H](NC(=O)OCc1ccccc1)C(C)(C)C)C(=O)C(=O)NC1CC1 [Compound 110]	100 to 500 nM
CCC[C@H](NC(=O)[C@@H]1C[C@]2(CC(c3cccc(Cl)c3)=NO2)CN1C(=O)[C@@H](NC(=O)OCCc1ccc(F)cc1)C(C)(C)C)C(=O)C(=O)NC1CC1 [Compound 118]	> 500 nM
CCC[C@H](NC(=O)[C@@H]1C[C@]2(CC(c3cccc(Cl)c3)=NO2)CN1C(=O)[C@@H](NC(=O)NCc1cccc(F)c1)C(C)(C)C)C(=O)C(=O)NC1CC1 [Compound 122]	100 to 500 nM
CCC[C@H](NC(=O)[C@@H]1C[C@]2(CC(c3cccc(Cl)c3)=NO2)CN1C(=O)[C@@H](NC(=O)NCC)C(C)(C)C)C(=O)C(=O)NC1CC1 [Compound 123]	< 100 nM
CCC[C@H](NC(=O)[C@@H]1C[C@]2(CC(c3cccc(Cl)c3)=NO2)CN1C(=O)[C@@H](NC(=O)Nc1ccc(N2C(=O)C=CC2=O)cc1)C(C)(C)C)C(=O)C(=O)NC1CC1 [Compound 128]	100 to 500 nM
CCC[C@H](NC(=O)[C@@H]1C[C@]2(CC(c3cccc(Cl)c3)=NO2)CN1C(=O)[C@@H](NC(=O)c1cn(C(C)C)c2ccccc2c1=O)C(C)(C)C)C(=O)C(=O)NC1CC1 [Compound 135]	> 500 nM
CCC[C@H](NC(=O)[C@@H]1C[C@]2(CC(c3cccc(Cl)c3)=NO2)CN1C(=O)[C@@H](NC(=O)[C@](C)(O)c1ccccc1)C(C)(C)C)C(=O)C(=O)NC1CC1 [Compound 139]	> 500 nM
CCC[C@H](NC(=O)[C@@H]1C[C@]2(CC(c3cccc(Cl)c3)=NO2)CN1C(=O)[C@@H](NC(=O)CC1CCCCC1)C(C)(C)C)C(=O)C(=O)NCC [Compound 140]	100 to 500 nM
C=C[C@@H]1C[C@]1(NC(=O)[C@@H]1C[C@]2(CC(c3cccc(Cl)c3)=NO2)CN1C(=O)[C@@H](NC(=O)CC1CCCCC1)C(C)(C)C)C(=O)O [Compound 144]	> 500 nM
CCC[C@H](NC(=O)[C@@H]1C[C@]2(CC(C(=O)NCC)=NO2)CN1C(=O)[C@@H](NC(=O)O[C@H]1CCOC1)C(C)(C)C)C(=O)C(=O)NC1CC1 [Compound 146]	> 500 nM
CCC[C@H](NC(=O)[C@@H]1C[C@]2(CC(c3ccc4c(c3)CCC(C)(C)O4)=NO2)CN1C(=O)[C@@H](NC(=O)O[C@H]1CCOC1)C(C)(C)C)C(=O)C(=O)NC1CC1 [Compound 150]	100 to 500 nM
C=CCOC(=O)N[C@H](C(=O)N1C[C@@]2(CC(c3ccccc3)=NO2)C[C@H]1C(=O)N[C@@H](CCC)C(=O)C(=O)NC1CC1)C(C)(C)C [Compound 151]	100 to 500 nM

Compound	Ki
CCC[C@H](NC(=O)[C@@H]1C[C@]2(CC(c3cccc(Cl)c3)=NO2)CN1C(=O)[C@@H](NC(=O)OCC1CCOC1)C(C)(C)C)C(=O)C(=O)NC1CC1 (some centres unmarked) [Compound 152]	100 to 500 nM
C=CCOC(=O)N[C@H](C(=O)N1C[C@@]2(CC(c3ccc(F)cc3)=NO2)C[C@H]1C(=O)N[C@@H](CCC)C(=O)C(=O)NC1CC1)C(C)(C)C [Compound 154]	100 to 500 nM
CCC[C@H](NC(=O)[C@@H]1C[C@]2(CC(c3cccc(Cl)c3)=NO2)CN1C(=O)[C@@H](NC(=O)Cc1cc(F)ccc1C)C(C)(C)C)C(=O)C(=O)NC1CC1 [Compound 155]	> 500 nM
CCC[C@H](NC(=O)[C@@H]1C[C@]2(CC(c3cccc(Cl)c3)=NO2)CN1C(=O)[C@@H](NC(=O)NCC(C)C)C(C)(C)C)C(=O)C(=O)NC1CC1 [Compound 156]	< 100 nM
CCC[C@H](NC(=O)[C@@H]1C[C@]2(CC(c3cccc(Cl)c3)=NO2)CN1C(=O)c1cc2cc(OC)c(OC)cc2[nH]1)C(=O)C(=O)NC1CC1 [Compound 157]	> 500 nM
CCC[C@H](NC(=O)[C@@H]1C[C@]2(CC(c3cccc(Cl)c3)=NO2)CN1C(=O)[C@@H](NC(=O)OCCc1ccsc1)C(C)(C)C)C(=O)C(=O)NC1CC1 [Compound 159]	100 to 500 nM
CCC[C@H](NC(=O)[C@@H]1C[C@]2(CC(c3cccc(Cl)c3)=NO2)CN1C(=O)[C@@H](NC(=O)c1cc(NC(C)=O)sc1C(C)=O)C(C)(C)C)C(=O)C(=O)NC1CC1 [Compound 161]	> 500 nM
CCC[C@H](NC(=O)[C@@H]1C[C@]2(CC(c3ccccc3Cl)=NO2)CN1C(=O)[C@@H](NC(=O)OCc1ccccc1)C(C)(C)C)C(=O)C(=O)NC1CC1 [Compound 164]	> 500 nM
CCC[C@H](NC(=O)[C@@H]1C[C@]2(CC(c3ccc(OC)cc3OC)=NO2)CN1C(=O)[C@@H](NC(=O)CC1CCCCC1)C(C)(C)C)C(=O)C(=O)NC1CC1 [Compound 166]	100 to 500 nM
CCC[C@H](NC(=O)[C@@H]1C[C@]2(CC(c3cccc(Cl)c3)=NO2)CN1C(=O)[C@@H](NC(=O)OCc1cccnc1C)C(C)(C)C)C(=O)C(=O)NC1CC1 [Compound 167]	100 to 500 nM
CCC[C@H](NC(=O)[C@@H]1C[C@]2(CC(c3cccc(Cl)c3)=NO2)CN1C(=O)[C@@H](NC(=O)OCc1cccc(C)c1)C(C)(C)C)C(=O)C(=O)NC1CC1 [Compound 174]	100 to 500 nM
CCC[C@H](NC(=O)[C@@H]1C[C@]2(CC(c3ccc(Br)o3)=NO2)CN1C(=O)[C@@H](NC(=O)CC1CCCCC1)C(C)(C)C)C(=O)C(=O)NC1CC1 [Compound 179]	100 to 500 nM
CCC[C@H](NC(=O)[C@@H]1C[C@]2(CC(C)=NO2)CN1C(=O)[C@@H](NC(C)=O)C(C)(C)C)C(=O)C(=O)NC1CC1 [Compound 180]	> 500 nM
CCC[C@H](NC(=O)[C@@H]1C[C@]2(CC(c3cccc(Cl)c3)=NO2)CN1C(=O)[C@@H](NC(=O)[C@H](OC)c1ccccc1)C(C)(C)C)C(=O)C(=O)NC1CC1 [Compound 187]	> 500 nM
CCC[C@H](NC(=O)[C@@H]1C[C@]2(CC(c3cccc(Cl)c3)=NO2)CN1C(=O)[C@@H](NC(=O)CCc1cccc(OC)c1)C(C)(C)C)C(=O)C(=O)NC1CC1 [Compound 189]	> 500 nM
CCC[C@H](NC(=O)[C@@H]1C[C@]2(CC(c3cc(C)c(OC)c(C)c3)=NO2)CN1C(=O)[C@@H](NC(=O)O[C@H]1CCOC1)C(C)(C)C)C(=O)C(=O)NC1CC1 [Compound 191]	> 500 nM
CCC[C@H](NC(=O)[C@@H]1C[C@]2(CC(c3cccc(Cl)c3)=NO2)CN1C(=O)[C@@H](NC(=O)OC(C)C)C(C)(C)C)C(=O)C(=O)NC1CC1 [Compound 193]	100 to 500 nM
